Measured values reported in patent US6610675B1 (priority 1980, dated 2003).
Several values for one entry are separate records, joined by “and”; a condition that tells them apart may be missing. Equal values may be shown once. Blank lines part the entries; values can stand above or below the molecule they belong to.

Legend:
[1] = system: granulation tissue formation caused by implantation of cotton pellets; assay: Granuloma formation test (local cotton pellet granuloma assay); assay type: in vivo, rat; conditions: Table III
Experimental: The test compound was dissolved in acetone and aliquots of varying concentrations were injected into cotton pellets. The pellets were dried and then one pellet was implanted beneath the skin of each test rat. Six days later, the animals were sacrificed and the granulation tissue (granuloma) which formed in and around the implanted pellet was removed, dried and weighed. In addition, the thymi and adrenals were removed and weighed.

[2] = system: blanching in humans; assay: McKenzie-type human blanching studies; assay type: in vivo; conditions: forearm, 6 hours occlusion
Experimental: McKenzie-type human blanching studies were undertaken to study the blanching effects of a representative test compound of the invention, chloromethyl 17α-ethoxycarbonyloxy-11β-hydroxyandrost-4-en-3-one-17β-carboxylate.
The test compound was dissolved in ethanol/isopropyl myristate (90/10 or 70/30) at 0.03, 0.01, 0.003, 0.001 and 0.0003 M concentrations. 50 Microliter aliquots of each solution were applied to separate gauze portions of a bandage of the type commonly used for allergy testing and the bandage was applied to the forearm. After 6 hours of occlusion, the bandage was removed.

[3] = system: ear swelling induced by croton oil; assay: Ear edema test; assay type: in vivo, rat; conditions: for Ear Weight, % Increase / Ear Weight, % Inhibition / Ear Weight, Inflamed Ear / Ear Weight, Untreated Ear: 6 hr; for Relative organ weight Adrenals / Relative organ weight Thymus: 48 hours
Experimental: The test animals were Sprague/Dawley rats weighing approximately 150 grams each. In treatment groups, selected amounts of the test compound were dissolved in acetone containing 5% croton oil and 50 microliters of the solution were applied to the inner surface of the right ear of the rats. A control group was identically treated with vehicle only, i.e. 5% croton oil in acetone. Six hours after croton oil challenge, a constant region of each ear was removed by dissection under anesthesia. Then, 48 hours after steroid treatment, the animals were sacrificed and the thymi and adrenals were removed and weighed. The test results showing the inhibitory effect of topically applied steroids on the ear swelling induced by croton oil are summarized in Table II below.

[4] = system: thymus weight in rats; assay: Thymus involution test (topically administered steroids, thymus weight in rats); conditions: 0.75 μmol topical on ear, after 24 hours
Experimental: The test animals were female Sprague/Dawley rats weighing approximately 40-45 grams each. One side of each ear of each rat was treated with a total of 25 microliters of a solution (ethanol/isopropyl myristate or acetone/isopropyl myristate, 90/10) containing the amount of test compound indicated below. Animals which were treated identically, save for omission of the test compound, served as controls. After 24 hours, all rats were sacrificed and weighed, and their thymi were removed and weighed.
The lower the weight of the thymi, the greater the systemic activity.

melting point: 133 to 136 °C and 137.5 to 138 °C
SMILES: CCOC(=O)O[C@]1(C(=O)OCSC)CCC2C3CCC4=CC(=O)CCC4(C)C3C(O)CC21C (stereo partly shown)

SMILES: COC(=O)O[C@]1(C(=O)OCCl)CCC2C3CCC4=CC(=O)CCC4(C)C3C(O)CC21C (stereo partly drawn) [chloromethyl 11β-hydroxy-17α-methoxycarbonyloxyandrost-4-en-3-one-17β-carboxylate]
Granulation tissue Dry wt. ([1]; 1 mg/pellet): 24.6 ± 2.6 mg/100 g body wt.
Granulation tissue Inhibition ([1]; 1 mg/pellet): 43.7%
melting point: 171 to 173 °C

melting point: 138 to 140 °C
SMILES: CC(C)OC(=O)OC1(C(=O)OCCl)[C@H](C)C[C@H]2[C@@H]3CCC4=CC(=O)C=C[C@]4(C)[C@@]3(F)C(=O)C[C@@]21C (stereo partly shown)

SMILES: CCOC(=O)O[C@]1(C(=O)OCCl)CC[C@H]2[C@@H]3CCC4=CC(=O)CC[C@]4(C)[C@H]3[C@@H](O)C[C@@]21C [chloromethyl 17α-ethoxycarbonyloxy-11β-hydroxyandrost-4-en-3-one-17β-carboxylate]
Body wt. gain ([1]; 0.1 mg/pellet): 36.0 ± 2.8 g
Granulation tissue Dry wt. ([1]; 0.1 mg/pellet): 34.7 ± 4.3 mg/100 g body wt.
Granulation tissue Inhibition ([1]; 0.1 mg/pellet): 20.6%
Relative organ weight Adrenals ([1]; 0.1 mg/pellet): 22.9 ± 2.6 mg/100 g body wt.
Relative organ weight Adrenals (Decrease %) ([1]; 0.1 mg/pellet): (3.4) %
Relative organ weight Thymus ([1]; 0.1 mg/pellet): 282 ± 13 mg/100 g body wt.
Relative organ weight Thymus (Decrease %) ([1]; 0.1 mg/pellet): (13.5) %
Body wt. gain ([1]; 0.3 mg/pellet): 33.0 ± 1.3 g
Granulation tissue Dry wt. ([1]; 0.3 mg/pellet): 25.3 ± 2.3 mg/100 g body wt.
Granulation tissue Inhibition ([1]; 0.3 mg/pellet): 42.1%
Relative organ weight Adrenals ([1]; 0.3 mg/pellet): 22.8 ± 1.0 mg/100 g body wt.
Relative organ weight Adrenals (Decrease %) ([1]; 0.3 mg/pellet): (3.8) %
Relative organ weight Thymus ([1]; 0.3 mg/pellet): 298 ± 16 mg/100 g body wt.
Relative organ weight Thymus (Decrease %) ([1]; 0.3 mg/pellet): (8.6) %
Body wt. gain ([1]; 1 mg/pellet): 32.8 ± 0.9 g
Granulation tissue Dry wt. ([1]; 1 mg/pellet): 14.0 ± 1.8 mg/100 g body wt.
Granulation tissue Inhibition ([1]; 1 mg/pellet): 68.0%
Relative organ weight Adrenals ([1]; 1 mg/pellet): 21.8 ± 1.3 mg/100 g body wt.
Relative organ weight Adrenals (Decrease %) ([1]; 1 mg/pellet): (8.0) %
Relative organ weight Thymus ([1]; 1 mg/pellet): 304 ± 10 mg/100 g body wt.
Relative organ weight Thymus (Decrease %) ([1]; 1 mg/pellet): (6.7) %
Body wt. gain ([1]; 3 mg/pellet): 30.7 ± 1.5 g
Granulation tissue Dry wt. ([1]; 3 mg/pellet): 18.7 ± 2.3 mg/100 g body wt.
Granulation tissue Inhibition ([1]; 3 mg/pellet): 57.2%
Relative organ weight Adrenals ([1]; 3 mg/pellet): 19.6 ± 1.1 mg/100 g body wt.
Relative organ weight Adrenals (Decrease %) ([1]; 3 mg/pellet): (17.3) %
Relative organ weight Thymus ([1]; 3 mg/pellet): 278 ± 21 mg/100 g body wt.
Relative organ weight Thymus (Decrease %) ([1]; 3 mg/pellet): (14.7) %
blanching ([2]; 0.03 to 0.0003 M, 50 microliter, read 1 to 5 hours after removal): blanching was observed even at the lowest concentrations
concentration causing approximately the same degree of blanching ([2]; direct comparison): ~0.001 M
Ear Weight, % Increase ([3]; 0.3 mg/kg topical): 23.3 ± 7.2 %
Ear Weight, % Inhibition ([3]; 0.3 mg/kg topical): 62.1%
Ear Weight, Inflamed Ear ([3]; 0.3 mg/kg topical): 62.2 ± 3.0 mg
Ear Weight, Untreated Ear ([3]; 0.3 mg/kg topical): 50.8 ± 2.4 mg
Relative organ weight Adrenals ([3]; 0.3 mg/kg topical): 26.0 ± 2.5 mg/100 g body wt.
Relative organ weight Thymus ([3]; 0.3 mg/kg topical): 290 ± 25 mg/100 g body wt.
Ear Weight, % Increase ([3]; 1 mg/kg topical): 14.0 ± 6.5 %
Ear Weight, % Inhibition ([3]; 1 mg/kg topical): 77.2%
Ear Weight, Inflamed Ear ([3]; 1 mg/kg topical): 55.0 ± 2.6 mg
Ear Weight, Untreated Ear ([3]; 1 mg/kg topical): 48.4 ± 1.0 mg
Relative organ weight Adrenals ([3]; 1 mg/kg topical): 18.7 ± 1.4 mg/100 g body wt.
Relative organ weight Thymus ([3]; 1 mg/kg topical): 293 ± 21 mg/100 g body wt.
Ear Weight, % Increase ([3]; 3 mg/kg topical): 3.7 ± 8.1 %
Ear Weight, % Inhibition ([3]; 3 mg/kg topical): 94.0%
Ear Weight, Inflamed Ear ([3]; 3 mg/kg topical): 52.6 ± 1.8 mg
Ear Weight, Untreated Ear ([3]; 3 mg/kg topical): 51.6 ± 3.2 mg
Relative organ weight Adrenals ([3]; 3 mg/kg topical): 20.3 ± 0.8 mg/100 g body wt.
Relative organ weight Thymus ([3]; 3 mg/kg topical): 288 ± 21 mg/100 g body wt.
swelling of the ear caused by croton oil (in words) ([3]; topical, Table II): substantially inhibited the swelling
thymus weight as compared to the control (in words) ([3]; topical, Table II): did not significantly decrease the thymus weight as compared to the control
Total Weight per Rat, % Gain ± SD [4]: 33 ± 6%
Total Weight per Rat, Final [4]: 60.60 g
mg Thymus ± SD / 100 g Rat [4]: 309 ± 24 mg/100 g
